pEC50: −log10 of the molar value.
Columns and labels:
Format in all cases: functional
[1] = Eudismic ratio was measured
Cavia porcellus [2] = organism: Cavia porcellus; experiment: Muscarinic potency was measured in guinea pig ileum; settings: for pEC50: Cavia porcellus, Ileum
Rattus norvegicus [3] = organism: Rattus norvegicus; experiment: Muscarinic potency was measured in rat bladder; settings: for pEC50: Rattus norvegicus
Rattus norvegicus [4] = organism: Rattus norvegicus; experiment: Muscarinic potency was measured in rat jejunum; settings: for pEC50: Rattus norvegicus, Jejunum
Cavia porcellus [5] = organism: Cavia porcellus; experiment: Muscarinic potency was measured in guinea pig atria; settings: for pEC50: Cavia porcellus

| SMILES | ER [1] | pEC50 (Cavia porcellus [2]) | pEC50 (Rattus norvegicus [3]) | pEC50 (Rattus norvegicus [4]) | pEC50 (Cavia porcellus [5]) | further results |
| --- | --- | --- | --- | --- | --- | --- |
| C[C@@H]1O[C@H](C[N+](C)(C)C)CC1=O [listing 1 of 2 here] | 3.1 | – | – | – | – | – |
| CN1OC(C[N+](C)(C)C)CC1=O (racemic) [listing 1 of 2 here] | – | – | – | – | – | -Log EC50 (Cavia porcellus [2]): 7.95; -Log EC50 (Rattus norvegicus [3]): 6.44; -Log EC50 (Rattus norvegicus [4]): 7.13; -Log EC50 (Cavia porcellus [5]): 7.62 |
| C[C@H]1OC[C@@H](C[N+](C)(C)C)O1 [listing 1 of 2 here] | – | 8.38 | 6.91 | 7.58 | 8.02 | – |
| C[C@H]1OC[C@@H](C[N+](C)(C)C)O1 (racemic) [listing 1 of 2 here] | 59 | – | – | – | – | – |
| CN1OC(C[N+](C)(C)C)CC1=O (stereo in doubt; 4) [listing 1 of 2 here] | 2.5 | – | – | – | – | – |
| C[C@@H]1O[C@H](C[N+](C)(C)C)CS1 [listing 1 of 2 here] | 170 | – | – | – | – | – |
| C[C@@H]1O[C@H](C[N+](C)(C)C)CC1=O [listing 2 of 2 here] | – | – | – | – | – | -Log EC50 (Cavia porcellus [2]): 9; -Log EC50 (Rattus norvegicus [3]): 7.28; -Log EC50 (Rattus norvegicus [4]): 7.89; -Log EC50 (Cavia porcellus [5]): 8.62 |
| C[C@@H]1O[C@H](C[N+](C)(C)C)CC1=O (racemic) [listing 1 of 2 here] | – | 9.00 | – | 7.89 | 8.62 | – |
| C[C@H]1CC[C@@H](C[N+](C)(C)C)O1 (racemic) | – | – | – | – | – | -Log EC50 (Cavia porcellus [2]): 6.87; -Log EC50 (Rattus norvegicus [3]): 5.62; -Log EC50 (Rattus norvegicus [4]): 6.19; -Log EC50 (Cavia porcellus [5]): 5.88 |
| CN1OC(C[N+](C)(C)C)CC1=O (racemic) [listing 2 of 2 here] | 2.5 | – | – | – | – | – |
| C=C1C[C@@H](C[N+](C)(C)C)O[C@H]1C | – | – | – | – | – | -Log EC50 (Cavia porcellus [2]): 7.38; -Log EC50 (Rattus norvegicus [3]): 6.13; -Log EC50 (Rattus norvegicus [4]): 6.78; -Log EC50 (Cavia porcellus [5]): 6.1 |
| C[C@@H]1O[C@H](C[N+](C)(C)C)CS1 (mixture of isomers) [listing 1 of 2 here] | – | – | – | – | – | -Log EC50 (Cavia porcellus [2]): 8.23; -Log EC50 (Rattus norvegicus [3]): 6.64; -Log EC50 (Rattus norvegicus [4]): 7.55; -Log EC50 (Cavia porcellus [5]): 7.37 |
| C[C@@H]1O[C@H](C[N+](C)(C)C)CC1=O (racemic) [listing 2 of 2 here] | 3.1 | – | – | – | – | – |
| C[C@@H]1O[C@H](C[N+](C)(C)C)CS1 (mixture of isomers) [listing 2 of 2 here] | 170 | – | – | – | – | – |
| CN1OC(C[N+](C)(C)C)CC1=O (stereo in doubt; 4) [listing 2 of 2 here] | – | 7.95 | 6.44 | 7.13 | 7.62 | – |
| C[C@@H]1O[C@H](C[N+](C)(C)C)C[C@H]1O [MUSCARINE] | 331 | 7.50 | 6.24 | 6.81 | 7.23 | – |
| C[C@@H]1O[C@H](C[N+](C)(C)C)CS1 [listing 2 of 2 here] | – | 8.23 | 6.64 | 7.55 | 7.37 | – |
| C=C1C[C@@H](C[N+](C)(C)C)O[C@H]1C (racemic) | – | 7.38 | 6.13 | 6.78 | 6.10 | – |
| C[C@H]1CC[C@@H](C[N+](C)(C)C)O1 | – | 6.87 | 5.62 | 6.19 | 5.88 | – |
| C[C@H]1OC[C@@H](C[N+](C)(C)C)O1 [listing 2 of 2 here] | 59 | – | – | – | – | – |
| C[C@@H]1O[C@H](C[N+](C)(C)C)CC1O (mixture of isomers) | 331 | 7.50 | 6.24 | 6.81 | 7.23 | – |
| C[C@H]1OC[C@@H](C[N+](C)(C)C)O1 (racemic) [listing 2 of 2 here] | – | – | – | – | – | -Log EC50 (Cavia porcellus [2]): 8.38; -Log EC50 (Rattus norvegicus [3]): 6.91; -Log EC50 (Rattus norvegicus [4]): 7.58; -Log EC50 (Cavia porcellus [5]): 8.02 |

Reference: ChEMBL document CHEMBL1126307, “Conformational studies of muscarone analogues: X-ray analysis and molecular mechanics calculations” (J Med Chem, 1992)
